Where two headings read alike, the source gives them in different places.
Legend:
[1] = In vitro permeation study, Franz-type diffusion cells, human cadaver skin; type: in vitro ADME
Description: Samples of full-thickness dermatomed human cadaver skins (≈800 μm) were obtained from the Burns Institute, 304th Clinical Department, The General Hospital of PLA, Trauma Center of Postgraduate Medical College and were free from overt pathology. The skin samples were kept frozen in liquid nitrogen and used within 3 months.
(§1) The method of the percutaneous absorption study adheres to the Test Guideline 428 of Organization for Economic Cooperation and Development (2004). The experiment was performed with a system employing Franz-type glass diffusion cells. The temperature in the receptor chamber was maintained at physiological temperature of 37.0±0.1° C. with an external, constant temperature circulating water bath.
Skin samples were treated using FMA delivery system. The insertion force was provided by the applicator. The skins without FMA treatment were used as control. The skin was mounted on a receptor chamber (2.5 ml) with the stratum corneum side facing upward into the donor chamber with effective permeation area of 0.66 cm^2. The receptor and donor chambers were filled with PBS solution, and the receptor fluid was continuously stirred with a magnetic bar at 280 rpm to maintain homogeneity. After 1 h equilibration, the solution in the receptor chamber was replaced with fresh PBS, and 300 μl of LC solution or 300 mg of LC gel was applied on the skin in the donor chamber, which was then covered with a parafilm to avoid any evaporation process. […] The samples were analyzed by HPLC/UV. The results were expressed as the mean±S.D. (n=3-4 independent samples).
The quantitative determination of LC was performed by HPLC using methanol-190 mM KH2PO4 water (87:13) as mobile phase at a flow rate of 0.6 ml/min, by LC-2010A (Shimadzu, Japan). […] The column eluant was monitored at 225 nm. […]
The cumulative amount of drug permeated per unit area versus time was plotted. The permeation rates of LC were calculated from the slope of linear portion of the plots. […] Statistically significant differences were determined using the analysis of variance (ANOVA) with P<0.05 as a minimal level of significance.

[2] = Skin penetration of active agent on applicator pre-treated skin
[3] = In vitro permeation study, Franz-type diffusion cells, rat skin; type: in vitro ADME
Description: Male Sprague-Dawley rats (220-250 g) were provided by Beijing Weitong Lihua Experimental Animals Ltd. Co. (Beijing China). Forty-eight hours before the test, rats were anesthetized by ether, and then the abdominal hair of each rat was shaved with an electric hair clipper. At the beginning of in vitro studies, animals were euthanized using carbon dioxide and full-thickness skins were removed. All research protocols adhered to the Guide for the Care and Use of Laboratory Animals (1996).
as §1
Skin samples were treated using FMA delivery system. The insertion force was provided by the applicator. The skins without FMA treatment were used as control. The skin was mounted on a receptor chamber (2.5 ml) with the stratum corneum side facing upward into the donor chamber with effective permeation area of 0.66 cm^2. The receptor and donor chambers were filled with PBS solution, and the receptor fluid was continuously stirred with a magnetic bar at 280 rpm to maintain homogeneity. After 1 h equilibration, the solution in the receptor chamber was replaced with fresh PBS, and 300 μl of LC solution or 300 mg of LC gel was applied on the skin in the donor chamber, which was then covered with a parafilm to avoid any evaporation process. The samples of receptor cell were withdrawn through at predetermined time intervals and the receptor phase was immediately refreshed by equal volume of PBS buffer to keep a constant volume. The samples were analyzed by HPLC/UV. The results were expressed as the mean±S.D. (n=3-4 independent samples).
The quantitative determination of LC was performed by HPLC using methanol-190 mM KH2PO4 water (87:13) as mobile phase at a flow rate of 0.6 ml/min, by LC-2010A (Shimadzu, Japan). The injection volume was 20 μl. The analysis was performed in a YMC-Pack ODS-A C18 column with dimensions of 250 mm×4.6 mm i.d., 5 μm particle size (YMC Inc., USA). The column eluant was monitored at 225 nm. The detection limit is 20 μg ml^−1. The inter- and intra-day variability was less than 5%.
The cumulative amount of drug permeated per unit area versus time was plotted. The permeation rates of LC were calculated from the slope of linear portion of the plots. Data analysis was carried out with Microsoft Excel, Version 2000. Results were presented as the mean±S.D. (n=3-4 independent samples). Statistically significant differences were determined using the analysis of variance (ANOVA) with P<0.05 as a minimal level of significance.

[4] = In vitro permeation study, Franz-type diffusion cells, porcine ear skin; details: for Permeation rates of LC / Cumulative amount of LC: porcine ear skin, FMA; for Cumulative amount of LC: 8 h
[5] = In vivo permeation study: pharmacokinetics and absolute bioavailability of LC in rats; details: rat; for bioavailability / AUC(0-inf) / Cmax / Tmax: male, Sprague-Dawley, plasma; for AUC(0-inf): AUC0-∞; for Plasma concentration: intravenous 200 mg/rat
Description: Male Sprague-Dawley rats (250 g±10 g) were equally divided into four groups (3 for each): group A, B, C and D. Before administration, all rats allowed to acclimatize for one week. One day before administration, rats were fasted overnight but allowed access to water. The hair of abdominal skin was carefully shaved by electric clippers for Group A and B. The rats in group A were pretreated by FMA with an area of 2 cm^2, the group B was untreated as a control. Then hydrogel patch containing LC 750 mg was applied to each rat by an adhesive housing for 6 h. Group C and Group D were control groups of oral and intravenous injection administration of 1 ml LC solution (200 mg/ml). A volume of 0.5 ml blood samples were taken before administration and at predetermined time intervals after LC administration. Plasma samples were immediately separated by centrifugation at 4000×g for 7 mins, and stored at −80° C. until assay.
Pretreatment method of samples: 120 μl of plasma was deproteinized with 600 μl of 0.6 M perchloric acid. The mixture was shaken for 30 s and allowed to stand in an ice bath for about 15 mins. After centrifuged at 4000×g for 7 mins, 500 μl of supernatant was transferred to a new tube in which 300 μl of 0.5 M K2CO3 was added, the mixture was shaken for 30 s and incubated in an ice-bath for 15 mins. Precipitate of KClO4 was removed by centrifugation at 4000×g for 7 mins, and 200 μl of the supernatant with free LC was separated for the assay.
Assays: The concentration of free LC in serum was determined by enzymatic assay kit with a limitation detection of 0.8 μg/ml.
Maximum plasma concentration (Cmax) and the time to reach this peak (Tmax) were directly identified from the pharmacokinetic curves (LC plasma concentration versus time). Area under the plasma concentration-time curve (AUC0→∞) was calculated by using the trapezoidal rule. Absolute bioavailability (A.B.) of LC after oral and FMA administration comparing with intravenous administration was calculated using the following equation:

[6] = With FMA, CP980 gel patch 750 mg/rat, 6 h application

**Q.** Which results are given for `C[N+](C)(C)C[C@H](O)CC(=O)[O-]` [LC, (3R)-3-hydroxy-4-trimethylazaniumylbutanoate]?
**A.** Apparent dose of LC [6]: 200 mg/rat; The residual amount in patch [6]: 550 mg/rat; The residual amount in patch (Without FMA, CP980 gel patch 750 mg/rat, 6 h application): 764 mg/rat; Difference between residual and initial content of patch (rat, in vivo): no significant difference; ER (enhancement ratio, FMA permeation rates/passive permeation rates) ([1]; human skin): 59; Permeation rates, FMA ([1]; human skin dermatomed ≈800 μm, FMA pretreatment, donor 640 mg/mL): 10.65 ± 2.12 mg/cm^2/h; Permeation rates, Passive Diffusion ([1]; human skin dermatomed ≈800 μm, without FMA, donor 640 mg/mL): 0.18 ± 0.02 mg/cm^2/h; Skin penetration speed on applicator pre-treated skin [2]: 10 times faster; Permeation rate through rat skin relative to human skin ([3]; after FMA-puncture): 3.7 times; Permeation rate through rat skin relative to human skin ([3]; passive diffusion): about 13.8 times; ER (enhancement ratio, FMA permeation rates/passive permeation rates) ([3]; rat skin): 16; Permeation rates, FMA ([3]; rat skin full thickness, FMA pretreatment, donor 640 mg/mL): 40.16 ± 3.97 mg/cm^2/h; Permeation rates, Passive Diffusion ([3]; rat skin full thickness, without FMA, donor 640 mg/mL): 2.49 ± 0.40 mg/cm^2/h; Permeation rates, FMA ([4]; porcine ear skin dermatomed ≈800 μm, FMA pretreatment, donor 640 mg/mL): 11.08 ± 2.05 mg/cm^2/h; Permeation rates, Passive Diffusion ([4]; porcine ear skin dermatomed ≈800 μm, without FMA, donor 640 mg/mL): 0.37 ± 0.04 mg/cm^2/h; Permeation rates of LC ([4]; donor concentration 650 mg/ml): 11.08±2.05 mg/cm^2/h; Cumulative amount of LC ([4]; donor concentration 650 mg/ml): 93.23±17.76 mg/cm^2; Permeation rates of LC ([4]; donor concentration 800 mg/ml): 11.80±1.50 mg/cm^2/h; Cumulative amount of LC ([4]; donor concentration 800 mg/ml): 97.20±12.60 mg/cm^2; bioavailability ([5]; iv, 200 mg): 100%; AUC(0-inf) ([5]; iv, 200 mg, Intravenous 200 mg/rat): 3680 µg·h/mL; Cmax ([5]; po, 200 mg): 40 ± 11 µg/mL; Tmax ([5]; po, 200 mg): 2 h; bioavailability ([5]; po, 200 mg): 8%; AUC(0-inf) ([5]; po, 200 mg, Oral 200 mg/rat): 309 µg·h/mL; Cmax ([5]; topical or ocular, 750 mg): 530 ± 86 µg/mL; Tmax ([5]; topical or ocular, 750 mg): 4 h; bioavailability ([5]; topical or ocular, 750 mg): 22%; AUC(0-inf) ([5]; topical or ocular, 750 mg, FMA delivery 750 mg/rat): 3020 µg·h/mL; Cmax after FMA delivery relative to oral administration ([5]; FMA 750 mg/rat vs oral 200 mg/rat): about 13 fold; AUC0-∞ ([5]; FMA delivery 750 mg/rat): 3049 µg·h/mL; Plasma concentration ([5]; at 3 min): 3900 ± 420 µg/mL; Plasma concentration ([5]; at 2 h): 270 ± 50 µg/mL
